One molecule from patent US10342806B2, “Hormone treatment for age-related hearing loss-presbycusis” (priority 2014, dated 2019) can be followed below.

Assay [1] deals with Spiral ganglion neuron (SGN). The assay can be described thus: Spiral ganglion neuron cell density, H&E staining of cochlear sections. It counts as in vivo, mouse. To be noted: upper apical, lower apical, upper basal, lower basal regions; ALD-treated middle-aged mice vs untreated control mice. On the procedure:
Death was confirmed by terminal phlebotomy/exsanguinations and perfusion.
For immunohistochemistry, mice were sacrificed, and one of the cochleae dissected, fixed in 4% paraformaldehyde in PBS overnight at 4° C., decalcification in 10% EDTA in PBS for a week at 4° C., and incubated in cryoprotection solution overnight at 4° C. The cochleae were embedded into degassed OCT overnight at 4° C., orientated into the cryomold with OCT degassed for 1 hour, then frozen at −80° C. Cryosectioning was performed at 5 μm per section. The cochlear cross sections were stained with hematoxylin and eosin (H&E) and MCR (H-300) (sc-11412, Santa Cruz Bio). The spiral ganglion neurons were counted by Metamorph imaging software (Molecular Devices, Center Valley, Pa. 18034-0610) and data analyzed by GraphPad Prism (GraphPad Software, Inc. La Jolla, Calif.).
Spiral ganglion neuron (SGN) cell density was measured from 4 different topographical area, comparing ALD-treated middle-aged mice to age-matched controls. […] Further, this increase in SGN is correlated with ABR threshold shifts (shown below) in the same mice.

In a further assay the test system is CBA/CaJ mice. Kind of assay: Auditory brainstem response (ABR) thresholds in aging CBA/CaJ mice. It counts as in vivo, mouse. On the procedure:
After 60 (2 months) or 120 days (4 months) of ALD implantation, mice were anesthetized with a combination of ketamine and xylazine (100 μl i.p. of sterile saline containing 100 mg/ml ketamine and […]) for ABR measurements.
Auditory brainstem responses (ABRs) were measured again at 2 and 4 months after treatment started
Auditory brainstem responses were obtained as follows. The mice were anesthetized with a mixture of ketamine/xylazine (120 and 10 mg/kg body weight, respectively, intraperitoneal injection) prior to all experimental sessions. All recording sessions were completed in a soundproof acoustic chamber (IAC) with body temperature maintained with a heating pad. ABRs were measured using Biosig (TDT, Alachua, Fla.) data-acquisition system which recorded responses to 5 ms tone pips ([…] rise-fall times) with a cos^2 onset envelope, presented at rate of 29/sec. Wave I threshold was defined as the lowest intensity which elicited a clearly replicable response. ABRs were measured pre-treatment and post-treatment at 2 and 4 mon. The pre-treatment ABR threshold was used as the baseline to calculate the thresholds shifts. The wave I peak-to-peak amplitudes were analyzed. Data was compared using GraphPad Prism 5.0 (GraphPad Software, Inc. La Jolla, Calif., USA.
As male mice weigh on average 28.0 g at week 9 and female mice 23.1 g, doses of the anti-inflammatory were designed to bracket a dose of 5 mg/kg/day. A total five groups (n=8, half male and half female) were tested. Treatment continued for 120 days or until the mouse was euthanized. […] Death was confirmed by terminal phlebotomy/exsanguinations and perfusion.
Mice were treated at middle age, as above, using 0.0016 mg/day of D-aldosterone, a combination of 0.0016 mg/day of D-aldosterone and 0.042 mg/day of Aspirin; and a control placebo (saline).

Another assay relates to LC3-I, -II, and LAMP-2. The assay can be described thus: Lysosome pathway markers in HT-29 cells, Western blot. It counts as cell-based, human. The following applies: ALD 1 μM, MG-132 20 μM, CQ 50 μM, 9 h. As to the method:
FIG. 23(A) is a blot and showing ubiquitination, but not the lysosome pathway, is involved in the regulation of NKCC1 by ALD. To exclude the possibility that depletion of free ubiquitin by the prolonged MG-132 treatment triggered nonspecific inhibition of lysosome degradation of NKCC1 and investigate whether ALD is involved in a lysosome pathway, a parallel experiment with chloroquine (CQ) was performed. Here, the positive marks (+) indicate application of ALD (1 μM), MG132 (20 μM), CQ (50 μM), ALD+CQ, and MG132+CQ for 9 h. An autophagosome marker, autophagy-related gene 8 named as light chain 3 (LC3), and the lysosome-associated membrane protein 2 (LAMP-2) were used was indicators of lysosome pathway activation (phagocytic activity) under treatment with CQ.
(§1) Western blot. Cell lysates were prepared in RIPA buffer (Pierce 89901; Thermo Scientific, Waltham, Mass.) with protease inhibitor cocktail (78430; Thermo Scientific). Cell samples were homogenized in buffer, followed by centrifugation at 2,000 rpm for 10 min at 4° C. Supernatants were subjected to Western blot analysis by loading 200 μg of protein per lane, after the protein concentrations were determined by Bradford protein assay. Proteins were fractionated by SDS-PAGE gel electrophoresis and transferred to a PVDF blotting membrane (Whatman, Piscataway, N.J.). The blot was incubated with primary antibodies against β-actin and Na—K-2C1 cotransport protein (Cell Signaling, Danvers Mass.); primary antibodies for p-SGK1, SGK1, pNedd4-2, and Nedd4-2 were utilized (concentration 1:1,000). The secondary antibody was horseradish peroxidaseconjugated goat anti-rabbit IgG (1:2,000; Cell Signaling).
Ubiquitination, but not the lysosome pathway, is involved in NKCC1 induction by ALD. A parallel experiment was performed with chloroquine (CQ), a lysosome inhibitor, to exclude the possibility that prolonged MG-132 treatment depleted free ubiquitin by nonspecific inhibition of lysosome degradation of NKCC1 and to confirm whether or not ALD is involved in a lysosome pathway. […]
A general note: A western blot detects proteins with antibodies after separation by electrophoresis.

Another assay relates to SGK1 and Nedd4-2. Kind of assay: SGK1 and Nedd4-2 phosphorylation in HT-29 cells, Western blot. It counts as cell-based, human. The following applies: ALD 1 μM, GSK 650394 50 μM, 9 h. As to the method:
FIG. 25 is a blot showing ALD modulation of NKCC1 via the ALD-SGK1-Nedd4-2 pathway. HT-29 cells were treated with ALD (1 μM) or ALD (1 μM)+GSK650394 (50 μM) for 9 h. Cell lysates were analyzed by Western blot as indicated. Blots are representative of 3 independent experiments. Left: controls. Middle: ALD increases the phosphorylations of SGK1 and Nedd4-2, concomitantly there is an increased induction of NKCC1 protein expression (1st row).
as §1

Take `C[C@]12CCC(=O)C=C1CC[C@@H]1[C@@H]2[C@@H](O)C[C@]2(C=O)[C@@H](C(=O)CO)CC[C@@H]12` [ALD, aldosterone]: in assay [1], the SGN density entry is “SGN density was higher”. For the same molecule, in the assay with CBA/CaJ mice (12, 24, 32, 36 kHz at 2 months and 4 months, 0.0016 mg/day), the ABR frequency response entry is on record as “showed improvement”. Also, the “ABR thresholds, control vs ALD treated group” value in the assay on CBA/CaJ mice (24, 32 and 36 kHz, at 120 days) was “significantly elevated in the control, non-treated, group relative to the ALD treated group”. Also, the “ABR shift / ABR thresholds” value with CBA/CaJ mice (24 kHz and 36 kHz, 2 and 4 month of treatment, vs placebo, Example 7) is reported as “reduced ABR shifts”. Also, the “ABR peak 1 amplitude” value with CBA/CaJ mice (high sound levels, relative to the control group) was “increased significantly at high sound levels”. The “dose optimal for ABR threshold improvements” value with CBA/CaJ mice (slow-release subcutaneous pellets, doses 0.00048 to 0.00476 mg/day, 60 or 120 days, relative to age-matched control mice) worked out at 0.0016 mg/day. The “lysosome pathway markers LC3II and LAMP-2 expression levels” value in the assay on LC3-I, -II, and LAMP-2 was “without increasing lysosome pathway markers”. The “phosphorylation of SGK1 and Nedd4-2” value in the assay on SGK1 and Nedd4-2 is “increases the phosphorylation of SGK1 and Nedd4-2”.
